Assays:
Assay in all cases: KiNativ kinome profiling in PANC-1 lysate
Type in all cases: binding
SRPK1, SRPK2 = details: 5 µM; Lys1; FVAMKVVK
Method in brief: (§1)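 PANC-1 lysates were incubated with 5 μM inhibitor or DMSO, then labeled with a desthiobiotin-ATP acyl-phosphate probe that biotinylates conserved kinase lysines. Tryptic peptides were streptavidin-enriched and quantified by LC-MS/MS, reported as % change in MS signal from duplicate treated and duplicate control samples.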

CCRK = target: T1, CCRK (Homo sapiens, UniProt Q8IZL9); details: Lys2
T1 construct: endogenous in cells; host or cells: PANC-1 cell lysate
Method in brief: as §1

NEK3 = target: T2, NEK3 (Homo sapiens, UniProt P51956); details: ATP Loop
T2 construct: endogenous in cells; host or cells: PANC-1 cell lysate
Method in brief: as §1

PKN1 = target: T3, PKN1 (Homo sapiens, UniProt Q16512)
T3 construct: endogenous in cells; host or cells: PANC-1 cell lysate
Method in brief: as §1

EphB2 = target: T4, EphB2 (Homo sapiens, UniProt P29323); details: ATP Loop
T4 construct: endogenous in cells; host or cells: PANC-1 lysate
Method in brief: as §1

GCN2 domain2 = target: T5, GCN2 domain2 (Homo sapiens, UniProt Q9P2K8)
T5 construct: we opted to conduct a kinome screen (KiNativ) in PANC-1 cell lysates; endogenous in cells; host or cells: PANC-1 cell lysate
Method in brief: as §1

p38d, p38g = details: 5 µM; Lys2; DLKPGNLAVNEDCELK
Method in brief: as §1

GSK3B = target: T6, GSK3B (Homo sapiens, UniProt P49841); details: Lys2
T6 construct: we opted to conduct a kinome screen (KiNativ) in PANC-1 cell lysates; endogenous in cells; host or cells: PANC-1 cell lysate
Method in brief: as §1

LOK = target: T7, LOK (Homo sapiens, UniProt O94804)
T7 construct: we opted to conduct a kinome screen (KiNativ) in PANC-1 cell lysates; endogenous in cells; host or cells: PANC-1 cell lysate
Method in brief: as §1

NEK8 = target: T8, NEK8 (Homo sapiens, UniProt Q86SG6); details: Lys2
T8 construct: endogenous in cells; host or cells: PANC-1 cell lysate
Method in brief: as §1

RSK2 domain1 = target: T9, RSK2 domain1 (Homo sapiens, UniProt P51812)
T9 construct: endogenous in cells; host or cells: PANC-1 cell lysate
Method in brief: as §1

ABL, ARG = details: 5 µM
Method in brief: as §1

MARK1, MARK2 = details: 5 µM; Lys1; EVAVKIIDK
Method in brief: as §1

RSK1 domain2 = target: T10, RSK1 domain2 (Homo sapiens, UniProt Q15418); details: Lys2
T10 construct: endogenous in cells; host or cells: PANC-1 cell lysate
Method in brief: as §1

ACK = target: T11, ACK (Homo sapiens, UniProt Q07912)
T11 construct: endogenous in cells; host or cells: PANC-1 cell lysate
Method in brief: as §1

PKR = target: T12, PKR (Homo sapiens, UniProt P19525)
T12 construct: endogenous in cells; host or cells: PANC-1 cell lysate
Method in brief: as §1

NEK7 = target: T13, NEK7 (Homo sapiens, UniProt Q8TDX7); details: Lys1
T13 construct: endogenous in cells; host or cells: PANC-1 cell lysate
Method in brief: as §1

ROCK1, ROCK2 = details: 5 µM
Method in brief: as §1

MAP3K15, MAP3K5, MAP3K6 = target: T14, MAP3K15, MAP3K5, MAP3K6 (Homo sapiens, UniProt Q6ZN16); details: 5 μM; PANC-1 lysate
T14 construct: endogenous in cells; host or cells: PANC-1 cell lysate
Method in brief: as §1

MST3, MST4, YSK1 = details: 5 µM; ATP Loop; LADFGVAGQLTDTQIKR
Method in brief: as §1

RSK3 domain1 = target: T15, RSK3 domain1 (Homo sapiens, UniProt Q15349); details: Lys2
T15 construct: endogenous in cells; host or cells: PANC-1 cell lysate
Method in brief: as §1

MAST1, MAST2 = details: 5 µM; Lys2; DLKPDNLLITSMGHIK
Method in brief: as §1

MRCKb = target: T16, MRCKb (Homo sapiens, UniProt Q9Y5S2); details: Lys2
T16 construct: endogenous in cells; host or cells: PANC-1
Method in brief: as §1

EphB3 = target: T17, EphB3 (Homo sapiens, UniProt P54753); details: ATP Loop
T17 construct: endogenous in cells; host or cells: PANC-1 lysate
Method in brief: as §1

MSK1 domain1 = target: T18, MSK1 domain1 (Homo sapiens, UniProt O75582); details: Lys2
T18 construct: endogenous in cells; host or cells: PANC-1
Method in brief: as §1

T12 sequence (P19525 whole entry): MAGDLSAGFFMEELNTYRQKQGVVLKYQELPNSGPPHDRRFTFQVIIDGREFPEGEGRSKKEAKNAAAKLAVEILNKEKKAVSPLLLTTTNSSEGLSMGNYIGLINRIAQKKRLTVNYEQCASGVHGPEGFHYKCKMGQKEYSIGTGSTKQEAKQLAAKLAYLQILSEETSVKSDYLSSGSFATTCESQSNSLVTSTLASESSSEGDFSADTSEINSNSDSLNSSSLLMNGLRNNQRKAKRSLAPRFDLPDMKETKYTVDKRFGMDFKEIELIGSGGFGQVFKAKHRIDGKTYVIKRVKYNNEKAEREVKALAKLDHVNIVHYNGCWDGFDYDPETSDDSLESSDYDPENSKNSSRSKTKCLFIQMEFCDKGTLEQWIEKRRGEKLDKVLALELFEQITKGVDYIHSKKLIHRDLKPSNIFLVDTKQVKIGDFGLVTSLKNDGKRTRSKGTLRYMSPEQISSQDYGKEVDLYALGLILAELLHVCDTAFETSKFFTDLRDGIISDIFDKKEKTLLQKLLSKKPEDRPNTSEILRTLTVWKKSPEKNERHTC
T9 sequence (P51812 whole entry, the tested form may be a part): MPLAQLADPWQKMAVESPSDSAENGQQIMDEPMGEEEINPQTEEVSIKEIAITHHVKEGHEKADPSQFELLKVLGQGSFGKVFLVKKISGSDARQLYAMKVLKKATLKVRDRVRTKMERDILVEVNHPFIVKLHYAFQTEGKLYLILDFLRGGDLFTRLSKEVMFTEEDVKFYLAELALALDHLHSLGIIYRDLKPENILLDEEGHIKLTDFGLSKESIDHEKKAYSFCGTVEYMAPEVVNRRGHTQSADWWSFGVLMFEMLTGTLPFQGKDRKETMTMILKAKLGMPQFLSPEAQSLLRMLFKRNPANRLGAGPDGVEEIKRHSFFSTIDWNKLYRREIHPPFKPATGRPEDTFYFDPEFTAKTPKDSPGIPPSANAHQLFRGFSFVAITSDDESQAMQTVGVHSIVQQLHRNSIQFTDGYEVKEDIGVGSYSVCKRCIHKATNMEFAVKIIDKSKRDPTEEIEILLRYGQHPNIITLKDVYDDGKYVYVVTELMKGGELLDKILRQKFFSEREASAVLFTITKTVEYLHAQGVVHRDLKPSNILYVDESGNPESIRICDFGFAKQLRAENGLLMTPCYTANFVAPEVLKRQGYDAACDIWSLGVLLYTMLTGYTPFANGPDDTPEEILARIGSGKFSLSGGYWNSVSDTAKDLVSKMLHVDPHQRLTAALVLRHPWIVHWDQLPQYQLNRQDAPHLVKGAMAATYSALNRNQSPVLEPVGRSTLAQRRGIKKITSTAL
T3 sequence (Q16512 whole entry): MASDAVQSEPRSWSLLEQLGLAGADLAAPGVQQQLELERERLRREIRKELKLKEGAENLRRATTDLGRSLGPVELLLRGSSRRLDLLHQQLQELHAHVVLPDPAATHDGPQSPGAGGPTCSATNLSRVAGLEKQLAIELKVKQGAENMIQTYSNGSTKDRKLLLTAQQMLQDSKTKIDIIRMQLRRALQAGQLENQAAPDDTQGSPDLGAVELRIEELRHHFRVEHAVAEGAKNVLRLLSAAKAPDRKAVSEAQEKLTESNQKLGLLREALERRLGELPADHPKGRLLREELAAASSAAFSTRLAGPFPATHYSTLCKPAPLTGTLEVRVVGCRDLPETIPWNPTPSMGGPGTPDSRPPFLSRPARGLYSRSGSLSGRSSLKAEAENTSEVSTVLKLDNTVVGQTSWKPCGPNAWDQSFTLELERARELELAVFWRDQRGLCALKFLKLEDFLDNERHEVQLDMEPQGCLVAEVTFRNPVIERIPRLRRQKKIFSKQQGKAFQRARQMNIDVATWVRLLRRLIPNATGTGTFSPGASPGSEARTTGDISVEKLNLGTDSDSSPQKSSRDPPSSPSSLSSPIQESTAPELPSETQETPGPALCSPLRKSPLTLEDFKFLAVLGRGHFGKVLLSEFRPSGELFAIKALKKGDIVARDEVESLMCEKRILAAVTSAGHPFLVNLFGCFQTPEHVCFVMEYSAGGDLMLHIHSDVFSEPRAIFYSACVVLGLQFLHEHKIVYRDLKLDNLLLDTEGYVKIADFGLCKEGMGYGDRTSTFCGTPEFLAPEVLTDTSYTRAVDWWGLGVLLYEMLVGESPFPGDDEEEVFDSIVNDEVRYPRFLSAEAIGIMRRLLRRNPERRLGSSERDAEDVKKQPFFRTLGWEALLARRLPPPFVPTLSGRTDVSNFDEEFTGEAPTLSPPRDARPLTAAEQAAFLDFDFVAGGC
T11 sequence (Q07912 whole entry): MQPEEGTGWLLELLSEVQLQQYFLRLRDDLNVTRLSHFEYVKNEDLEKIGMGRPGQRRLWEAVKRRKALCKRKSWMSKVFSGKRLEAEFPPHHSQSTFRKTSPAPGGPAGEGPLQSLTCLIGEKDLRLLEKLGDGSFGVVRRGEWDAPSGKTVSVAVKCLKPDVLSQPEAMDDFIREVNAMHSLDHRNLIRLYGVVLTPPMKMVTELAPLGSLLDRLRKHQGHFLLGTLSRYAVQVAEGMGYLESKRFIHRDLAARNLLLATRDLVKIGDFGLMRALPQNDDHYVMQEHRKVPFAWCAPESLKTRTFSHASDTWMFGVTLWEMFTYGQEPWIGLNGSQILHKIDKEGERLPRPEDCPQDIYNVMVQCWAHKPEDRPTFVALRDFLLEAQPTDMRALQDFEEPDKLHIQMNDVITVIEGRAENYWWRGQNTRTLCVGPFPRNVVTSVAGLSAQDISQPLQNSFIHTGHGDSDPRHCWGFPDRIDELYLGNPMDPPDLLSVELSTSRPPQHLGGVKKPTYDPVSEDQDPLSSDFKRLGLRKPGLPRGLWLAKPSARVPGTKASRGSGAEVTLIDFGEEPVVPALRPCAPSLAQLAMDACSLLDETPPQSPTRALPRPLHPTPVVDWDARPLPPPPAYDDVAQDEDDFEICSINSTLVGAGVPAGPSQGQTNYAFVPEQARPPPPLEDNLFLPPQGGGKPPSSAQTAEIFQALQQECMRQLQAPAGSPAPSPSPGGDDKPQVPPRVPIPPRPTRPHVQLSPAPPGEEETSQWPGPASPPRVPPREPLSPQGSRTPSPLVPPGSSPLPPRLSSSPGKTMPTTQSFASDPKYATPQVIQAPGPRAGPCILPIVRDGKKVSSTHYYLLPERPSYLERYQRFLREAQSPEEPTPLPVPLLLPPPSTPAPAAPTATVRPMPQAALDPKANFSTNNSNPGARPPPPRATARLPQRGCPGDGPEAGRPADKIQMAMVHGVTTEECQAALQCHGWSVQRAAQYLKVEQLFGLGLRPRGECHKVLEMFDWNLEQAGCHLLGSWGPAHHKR
T7 sequence (O94804 whole entry): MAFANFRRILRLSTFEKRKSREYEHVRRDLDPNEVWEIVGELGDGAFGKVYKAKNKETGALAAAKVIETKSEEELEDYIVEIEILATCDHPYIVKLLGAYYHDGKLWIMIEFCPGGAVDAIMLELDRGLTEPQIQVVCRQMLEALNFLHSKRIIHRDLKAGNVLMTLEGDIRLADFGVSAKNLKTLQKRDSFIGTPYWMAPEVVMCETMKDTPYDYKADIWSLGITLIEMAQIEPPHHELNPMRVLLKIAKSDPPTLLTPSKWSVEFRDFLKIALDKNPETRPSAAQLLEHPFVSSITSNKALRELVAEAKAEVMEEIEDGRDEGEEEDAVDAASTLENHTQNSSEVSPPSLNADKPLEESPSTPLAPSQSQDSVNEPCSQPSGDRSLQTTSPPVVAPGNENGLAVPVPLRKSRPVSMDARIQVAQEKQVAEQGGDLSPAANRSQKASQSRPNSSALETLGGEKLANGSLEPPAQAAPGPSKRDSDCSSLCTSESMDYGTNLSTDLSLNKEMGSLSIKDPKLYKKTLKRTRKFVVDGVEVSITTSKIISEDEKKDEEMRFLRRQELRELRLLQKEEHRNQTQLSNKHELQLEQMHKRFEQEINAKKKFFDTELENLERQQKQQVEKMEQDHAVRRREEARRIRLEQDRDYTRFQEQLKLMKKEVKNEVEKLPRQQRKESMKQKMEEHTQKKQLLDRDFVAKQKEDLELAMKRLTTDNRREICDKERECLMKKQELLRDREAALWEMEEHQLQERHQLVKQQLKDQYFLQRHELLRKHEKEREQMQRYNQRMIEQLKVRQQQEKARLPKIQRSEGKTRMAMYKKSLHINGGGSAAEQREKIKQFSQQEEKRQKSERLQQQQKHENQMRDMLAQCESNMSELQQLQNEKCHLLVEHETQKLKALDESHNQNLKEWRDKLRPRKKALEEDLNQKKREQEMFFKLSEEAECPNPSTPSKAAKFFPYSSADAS
T8 sequence (Q86SG6 whole entry): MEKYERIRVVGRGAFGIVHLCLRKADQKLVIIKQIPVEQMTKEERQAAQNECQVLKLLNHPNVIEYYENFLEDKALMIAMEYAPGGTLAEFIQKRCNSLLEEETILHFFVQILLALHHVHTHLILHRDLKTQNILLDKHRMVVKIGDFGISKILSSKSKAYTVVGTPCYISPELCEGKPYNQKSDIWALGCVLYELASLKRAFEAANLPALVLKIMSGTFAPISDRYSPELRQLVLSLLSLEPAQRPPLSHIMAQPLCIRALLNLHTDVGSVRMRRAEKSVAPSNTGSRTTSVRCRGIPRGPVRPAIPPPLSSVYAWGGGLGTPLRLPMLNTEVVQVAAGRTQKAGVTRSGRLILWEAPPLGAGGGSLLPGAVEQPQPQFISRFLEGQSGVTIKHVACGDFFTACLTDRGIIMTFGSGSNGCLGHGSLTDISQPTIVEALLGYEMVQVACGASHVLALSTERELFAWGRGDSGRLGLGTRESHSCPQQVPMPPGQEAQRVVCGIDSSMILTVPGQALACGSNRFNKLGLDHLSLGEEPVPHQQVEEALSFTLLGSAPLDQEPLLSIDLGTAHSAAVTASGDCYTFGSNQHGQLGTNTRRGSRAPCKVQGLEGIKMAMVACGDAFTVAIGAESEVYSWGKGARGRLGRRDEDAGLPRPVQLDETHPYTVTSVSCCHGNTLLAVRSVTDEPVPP

Cn1cc(-c2cnc3ccc(NC(=O)Nc4ccc(F)c(C(F)(F)F)c4)cc3n2)cn1 [51-106, 1-(4-Fluoro-3-(trifluoromethyl)phenyl)-3-(3-(1-methyl-1H-pyrazol-4-yl)quinoxalin-6-yl)urea]
% Inhibition (SRPK1, SRPK2): NB (NB = No Binding (≤ 0))
inhibition at 5 µM (CCRK): 4.5%
inhibition at 5 µM (NEK3): 5.1%
inhibition at 5 µM (PKN1; Lys1, VLLSEFRPSGELFAIKALK): ≤ 0%
inhibition at 5 µM (PKN1; Lys2, DLKLDNLLLDTEGYVK): 14.3%
inhibition at 5 µM (EphB2): ≤ 0%
inhibition at 5 µM (GCN2 domain2; Lys1, LDGCCYAVKR): 5.3%
inhibition at 5 µM (GCN2 domain2; Lys2, DLKPVNIFLDSDDHVK): ≤ 0%
% Inhibition (p38d, p38g): NB (NB = No Binding (≤ 0))
inhibition at 5 µM (GSK3B): ≤ 0%
% Inhibition (LOK; 5 µM, Lys1, NKETGALAAAKVIETK): NB (NB = No Binding (≤ 0))
inhibition at 5 µM (LOK; Lys2, […]): ≤ 0%
inhibition at 5 µM (NEK8): ≤ 0%
inhibition at 5 µM (RSK2 domain1; ATP Loop, LTDFGLSKESIDHEKK): ≤ 0%
inhibition at 5 µM (RSK2 domain1; Lys1, QLYAMKVLK): 23.6%
% Inhibition (ABL, ARG; Activation Loop, LMTGDTYTAHAGAKFPIK): NB (NB = No Binding (≤ 0))
% Inhibition (ABL, ARG; Lys1, YSLTVAVKTLK): 3.5%
% Inhibition (ABL, ARG; Lys1, YSLTVAVKTLKEDTMEVEEFLK): NB (NB = No Binding (≤ 0))
% Inhibition (MARK1, MARK2): NB (NB = No Binding (≤ 0))
inhibition at 5 µM (RSK1 domain2): 6.9%
% Inhibition (ACK; 5 µM, Activation Loop, KVPFAWCAPESLK): NB (NB = No Binding (≤ 0))
inhibition at 5 µM (ACK; Lys1, […]): ≤ 0%
inhibition at 5 µM (PKR; ATP Loop, IGDFGLVTSLKNDGKR): ≤ 0%
inhibition at 5 µM (PKR; Lys2, DLKPSNIFLVDTK): 18.7%
inhibition at 5 µM (NEK7): 10.3%
% Inhibition (ROCK1, ROCK2; Lys1, VYAMKLLSK): 11.9%
% Inhibition (ROCK1, ROCK2; Lys2, DVKPDNMLLDK): NB (NB = No Binding (≤ 0))
inhibition of MAP3K15 (in words) (MAP3K15, MAP3K5, MAP3K6): did not inhibit
% Inhibition (MST3, MST4, YSK1): NB (NB = No Binding (≤ 0))
inhibition at 5 µM (RSK3 domain1): ≤ 0%
% Inhibition (MAST1, MAST2): NB (NB = No Binding (≤ 0))
inhibition at 5 µM (MRCKb): ≤ 0%
inhibition at 5 µM (EphB3): 1.6%
inhibition at 5 µM (MSK1 domain1): ≤ 0%

Reference: article PMC12073402, “A Selective MAP3K1 Inhibitor Facilitates Discovery of NPM1 as a Member of the Network” (Molecules, 2025)
